ChEMBL document CHEMBL2440076, “New triarylpyrazoles as broad-spectrum anticancer agents: design, synthesis, and biological evaluation” (Eur J Med Chem, 2013)

Assays:
Format in all cases: functional
MDA-MB-231 [1] = assay: Growth inhibition of human MDA-MB-231 cells assessed as cell growth at 5X10'-5 M after 48 hrs by sulforhodamine B assay; settings: MDA-MB-231, 48 h, read-out: Activity
SF-539 [2] = assay: Growth inhibition of human SF539 cells assessed as cell growth at 5X10'-7 M after 48 hrs by sulforhodamine B assay; settings: SF-539, 48 h, read-out: Activity
MDA-MB-231 [3] = assay: Growth inhibition of human MDA-MB-231 cells assessed as cell growth at 5X10'-9 M after 48 hrs by sulforhodamine B assay; settings: MDA-MB-231, 48 h, read-out: Activity
HCT-116 = assay: Growth inhibition of human HCT116 cells assessed as cell growth at 5X10'-6 M after 48 hrs by sulforhodamine B assay; settings: HCT-116, 48 h, read-out: Activity
MDA-MB-231 [4] = assay: Growth inhibition of human MDA-MB-231 cells assessed as cell growth at 5X10'-7 M after 48 hrs by sulforhodamine B assay; settings: MDA-MB-231, 48 h, read-out: Activity
DU-145 [5] = assay: Growth inhibition of human DU145 cells assessed as cell growth at 5X10'-9 M after 48 hrs by sulforhodamine B assay; settings: DU-145, 48 h, read-out: Activity
BT-549 [6] = assay: Growth inhibition of human BT549 cells assessed as cell growth at 5X10'-8 M after 48 hrs by sulforhodamine B assay; settings: BT-549, 48 h, read-out: Activity
BT-549 [7] = assay: Growth inhibition of human BT549 cells assessed as cell growth at 5X10'-9 M after 48 hrs by sulforhodamine B assay; settings: BT-549, 48 h, read-out: Activity
T47D [8] = assay: Growth inhibition of human T47D cells assessed as cell growth at 5X10'-9 M after 48 hrs by sulforhodamine B assay; settings: read-out: Activity
DU-145 [9] = assay: Growth inhibition of human DU145 cells assessed as cell growth at 5X10'-8 M after 48 hrs by sulforhodamine B assay; settings: DU-145, 48 h, read-out: Activity
SK-MEL-28 [10] = assay: Growth inhibition of human SK-MEL-28 cells assessed as cell growth at 5X10'-9 M after 48 hrs by sulforhodamine B assay; settings: SK-MEL-28, 48 h, read-out: Activity
T47D [11] = assay: Growth inhibition of human T47D cells assessed as cell growth at 5X10'-8 M after 48 hrs by sulforhodamine B assay; settings: read-out: Activity
SK-MEL-2 [12] = assay: Growth inhibition of human SK-MEL-2 cells assessed as cell growth at 5X10'-8 M after 48 hrs by sulforhodamine B assay; settings: SK-MEL-2, 48 h, read-out: Activity
OVCAR-5 [13] = assay: Growth inhibition of human OVCAR5 cells assessed as cell growth at 5X10'-7 M after 48 hrs by sulforhodamine B assay; settings: OVCAR-5, 48 h, read-out: Activity
SK-OV-3 [14] = assay: Growth inhibition of human SKOV3 cells assessed as cell growth at 5X10'-8 M after 48 hrs by sulforhodamine B assay; settings: SK-OV-3, 48 h, read-out: Activity
MDA-MB-435 = assay: Growth inhibition of human MDA-MB-435 cells assessed as cell growth at 5X10'-5 M after 48 hrs by sulforhodamine B assay; settings: MDA-MB-435, 48 h, read-out: Activity
SK-OV-3 [15] = assay: Growth inhibition of human SKOV3 cells assessed as cell growth at 5X10'-7 M after 48 hrs by sulforhodamine B assay; settings: SK-OV-3, 48 h, read-out: Activity
OVCAR-4 = assay: Growth inhibition of human OVCAR4 cells assessed as cell growth at 5X10'-7 M after 48 hrs by sulforhodamine B assay; settings: OVCAR-4, 48 h, read-out: Activity
NCI-H226 = assay: Growth inhibition of human NCI-H226 cells assessed as cell growth at 5X10'-6 M after 48 hrs by sulforhodamine B assay; settings: NCI-H226, 48 h, read-out: Activity
A549 = assay: Growth inhibition of human A549/ATCC cells assessed as cell growth at 5X10'-8 M after 48 hrs by sulforhodamine B assay; settings: A549, 48 h, read-out: Activity
SF-295 = assay: Growth inhibition of human SF295 cells assessed as cell growth at 5X10'-9 M after 48 hrs by sulforhodamine B assay; settings: SF-295, 48 h, read-out: Activity
SF-539 [16] = assay: Growth inhibition of human SF539 cells assessed as cell growth at 5X10'-9 M after 48 hrs by sulforhodamine B assay; settings: SF-539, 48 h, read-out: Activity
HL-60(TB) = assay: Growth inhibition of human HL-60(TB) cells assessed as cell growth at 5X10'-6 M after 48 hrs by sulforhodamine B assay; settings: HL-60, 48 h, read-out: Activity
SN12C = assay: Growth inhibition of human SN12C cells assessed as cell growth at 5X10'-8 M after 48 hrs by sulforhodamine B assay; settings: read-out: Activity
OVCAR-3 = assay: Growth inhibition of human OVCAR3 cells assessed as cell growth at 5X10'-7 M after 48 hrs by sulforhodamine B assay; settings: OVCAR-3, 48 h, read-out: Activity
M14 = assay: Growth inhibition of human M14 cells assessed as cell growth at 5X10'-5 M after 48 hrs by sulforhodamine B assay; settings: M14, 48 h, read-out: Activity
LOX IMVI = assay: Growth inhibition of human LOXIMVI cells assessed as cell growth at 5X10'-5 M after 48 hrs by sulforhodamine B assay; settings: read-out: Activity
SK-MEL-28 [17] = assay: Growth inhibition of human SK-MEL-28 cells assessed as cell growth at 5X10'-7 M after 48 hrs by sulforhodamine B assay; settings: SK-MEL-28, 48 h, read-out: Activity
SNB-19 = assay: Growth inhibition of human SNB19 cells assessed as cell growth at 5X10'-7 M after 48 hrs by sulforhodamine B assay; settings: SNB-19, 48 h, read-out: Activity
SK-MEL-2 [18] = assay: Growth inhibition of human SK-MEL-2 cells assessed as cell growth at 5X10'-7 M after 48 hrs by sulforhodamine B assay; settings: SK-MEL-2, 48 h, read-out: Activity
OVCAR-5 [19] = assay: Growth inhibition of human OVCAR5 cells assessed as cell growth at 5X10'-9 M after 48 hrs by sulforhodamine B assay; settings: OVCAR-5, 48 h, read-out: Activity
SW-620 = assay: Growth inhibition of human SW620 cells assessed as cell growth at 5X10'-5 M after 48 hrs by sulforhodamine B assay; settings: SW-620, 48 h, read-out: Activity
NCI-H322M = assay: Growth inhibition of human NCI-H322M cells assessed as cell growth at 5X10'-5 M after 48 hrs by sulforhodamine B assay; settings: read-out: Activity
786-0 = assay: Growth inhibition of human 786-0 cells assessed as cell growth at 5X10'-9 M after 48 hrs by sulforhodamine B assay; settings: 786-0, 48 h, read-out: Activity
SF-268 = assay: Growth inhibition of human SF268 cells assessed as cell growth at 5X10'-7 M after 48 hrs by sulforhodamine B assay; settings: SF-268, 48 h, read-out: Activity
CAKI-1 = assay: Growth inhibition of human CAKI-1 cells assessed as cell growth at 5X10'-5 M after 48 hrs by sulforhodamine B assay; settings: CAKI-1, 48 h, read-out: Activity
HCT-15 = assay: Growth inhibition of human HCT15 cells assessed as cell growth at 5X10'-7 M after 48 hrs by sulforhodamine B assay; settings: HCT-15, 48 h, read-out: Activity

Structure (SMILES)	growth at 50 µM (MDA-MB-231 [1]) [%]	growth at 0.5 µM (SF-539 [2]) [%]	growth at 0.005 µM (MDA-MB-231 [3]) [%]	growth at 5 µM (HCT-116) [%]	growth at 0.5 µM (MDA-MB-231 [4]) [%]	growth at 0.005 µM (DU-145 [5]) [%]	growth at 0.05 µM (BT-549 [6]) [%]	growth at 0.005 µM (BT-549 [7]) [%]	growth at 0.005 µM (T47D [8]) [%]	growth at 0.05 µM (DU-145 [9]) [%]	growth at 0.005 µM (SK-MEL-28 [10]) [%]	growth at 0.05 µM (T47D [11]) [%]	growth at 0.05 µM (SK-MEL-2 [12]) [%]	growth at 0.5 µM (OVCAR-5 [13]) [%]	growth at 0.05 µM (SK-OV-3 [14]) [%]	growth at 50 µM (MDA-MB-435) [%]	growth at 0.5 µM (SK-OV-3 [15]) [%]	growth at 0.5 µM (OVCAR-4) [%]	growth at 5 µM (NCI-H226) [%]	growth at 0.05 µM (A549) [%]	also measured
COc1cc(-c2nn(-c3cccc(NC(=O)Nc4cc(C(F)(F)F)cc(C(F)(F)F)c4)c3)cc2-c2ccncc2)ccc1Cl	-85	85	101	-52	69	106	102	103	101	111	101	104	115	82	103	-64	95	73	7	95	growth at 0.005 µM (SF-295): 90%; growth at 0.005 µM (SF-539 [16]): 88%; growth at 5 µM (HL-60(TB)): 8%; growth at 0.05 µM (SN12C): 91%; growth at 0.5 µM (OVCAR-3): 45%; growth at 50 µM (M14): -28%; growth at 50 µM (LOX IMVI): -86%; growth at 0.5 µM (SK-MEL-28 [17]): 89%; growth at 0.5 µM (SNB-19): 61%; growth at 0.5 µM (SK-MEL-2 [18]): 105%; growth at 0.005 µM (OVCAR-5 [19]): 87%; growth at 50 µM (SW-620): -65%; growth at 50 µM (NCI-H322M): -58%; growth at 0.005 µM (786-0): 100%; growth at 0.5 µM (SF-268): 87%; growth at 50 µM (CAKI-1): -50%; growth at 0.5 µM (HCT-15): 61%
COc1cc(-c2nn(-c3cccc(NC(=O)c4cccc(C(F)(F)F)c4)c3)cc2-c2ccncc2)ccc1Cl	-21	81	102	12	77	98	98	99	92	95	103	91	97	85	103	-37	101	81	18	98	growth at 0.005 µM (SF-295): 94%; growth at 0.005 µM (SF-539 [16]): 95%; growth at 5 µM (HL-60(TB)): 16%; growth at 0.05 µM (SN12C): 99%; growth at 0.5 µM (OVCAR-3): 98%; growth at 50 µM (M14): 12%; growth at 50 µM (LOX IMVI): 5%; growth at 0.5 µM (SK-MEL-28 [17]): 87%; growth at 0.5 µM (SNB-19): 100%; growth at 0.5 µM (SK-MEL-2 [18]): 91%; growth at 0.005 µM (OVCAR-5 [19]): 95%; growth at 50 µM (SW-620): 19%; growth at 50 µM (NCI-H322M): 46%; growth at 0.005 µM (786-0): 95%; growth at 0.5 µM (SF-268): 88%; growth at 50 µM (CAKI-1): 17%; growth at 0.5 µM (HCT-15): 84%
